# How the values were obtained:
# Format in all cases: in vivo
# [1] = system: Early Blight (Alternaria solani); assay: Evaluation of fungicide in the treatment of Early Blight on tomatoes; details: inoculated tomato plants; Chlorothalonil 2.5 pt/ac, no adjuvant; rated after one week
# Protocol: This example evaluated the effectiveness of the fungicide chlorothalonil for the control of Early Blight on tomatoes. The fungicide was mixed with water in a spray tank at the listed rate treatment (A), or with a permeabilizer (B) and the degree of control of the Early Blight was evaluated. The tomato plants were inoculated with the fungi. The ratings were made after one week on the per cent leaves infected with Alternaria and also the number with severe damage—necrosis.
# [2] = system: Bacterial Leaf Spot (Xanthomonas campestris); assay: Effectiveness of a bactericide on bacterial leaf spot on tomatoes; details: inoculated tomato plants; Copper 2#/acre, no adjuvant; rated after two weeks
# Protocol: This example evaluated the effectiveness of the bactericide copper hydroxide for the control of bacterial leaf spot on tomatoes. The tomato plants were inoculated with the bacteria. The bactericide was mixed with water in a spray tank at the listed rate treatment (A), or with a permeabilizer (B) and the degree of control of the leaf spot was evaluated. The ratings were made after two weeks on the per cent leaves infected.
# [3] = system: fireblight on Southern Crepe Myrtle; assay: Effectiveness of bactericide streptomycin at controlling fireblight; details: infected plants sprayed until wet; rated after two days; adjuvant (B) at 500:1 dilution
# Protocol: This example evaluated the effectiveness of the bactericide streptomycin for the control of fireblight on Southern Crepe Myrtle. The bactericide was mixed with water in a spray tank at the listed rate treatment (A), or with a permeabilizer (B). The infected plants were treated with the bactericide by spraying until wet and the degree of control of the fireblight was evaluated. The ratings were made after two days on the rate required for control.
compound,measurement,setting,value
"N#Cc1c(Cl)c(Cl)c(Cl)c(C#N)c1Cl [Chlorothalonil, chlorothalonil]",Infected Leaflets,[1],60%
same,Infected Leaves,[1],42%
same,Leaves with >50% Necrosis,[1],42%
"[Cu+2].[OH-].[OH-] [Copper, copper hydroxide]",% Leaves Infected,[2],63%
"[H]/N=C(/N)N[C@H]1[C@H](O)[C@@H](O)[C@H](O[C@@H]2O[C@@H](C)[C@](O)(C=O)[C@H]2O[C@@H]2O[C@@H](CO)[C@H](O)[C@@H](O)[C@@H]2NC)[C@@H](N/C(N)=N\[H])[C@@H]1O [Streptomycin, streptomycin]",Level of Control (rate required for control),[3],60 ppm

# Source: patent US9113625B2, “Adjuvant for agricultural chemicals” (CJB Industries, Inc., priority 2009, dated 2015)
